Test results published in patent US10136663B2, “Curcuminoid-based compound/stevioside-containing complex for the prevention and treatment of an influenza virus infection” (priority 2011, dated 2018).
Where two headings read alike, the source gives them in different places.

Assays:
[1] = Curcumin content of curcumin/stevioside complex solution; type: physicochemical; conditions: in 100 g/L of the stevioside solution, after ultrasonication at 70° C. and oven reaction
[2] = system: influenza virus type A (H9N2); design: species or system chicken; conditions: in vivo, po
[3] = system: influenza virus H9N2 (A/Chicken/Korea/MS96/96); conditions: dog
[4] = system: influenza virus H9N2 (A/Chicken/Korea/MS96/96); conditions: dog; remark: listed apart in the source

COc1cc(/C=C/C(=O)/C=C(O)/C=C/c2ccc(O)c(OC)c2)ccc1O [Curcumin, curcumin]
maximum curcumin in the resulting solution [1]: 3.5 g/L

C=C1C[C@@]23CC[C@H]4[C@@](C)(CCC[C@@]4(C)C(=O)O[C@@H]4O[C@H](CO)[C@@H](O)[C@H](O)[C@H]4O)[C@@H]2CC[C@]1(O[C@@H]1O[C@H](CO)[C@@H](O)[C@H](O)[C@H]1O[C@@H]1O[C@H](CO)[C@@H](O)[C@H](O)[C@H]1O)C3 [G4, stevioside]
Mean virus titer, Cecal Tonsil [2]: 5.30 ± 3.5 log10EID50/g
Mean virus titer, Trachea [2]: 5.80 ± 1.3 log10EID50/g
Virus re-isolation, Cecal Tonsil (number of virus-positive chicken/number of inoculated chickens) [2]: 8/10
Virus re-isolation, Trachea (number of virus-positive chicken/number of inoculated chickens) [2]: 10/10

CCOC(=O)C1=C[C@@H](OC(CC)CC)[C@H](NC(C)=O)[C@@H](N)C1 [Tamiflu, reference compound]
SI, selective index, CC50/EC50 [3]: >200
SI, selective index, CC50/EC50 [4]: >200
